The text below walks through data of US12624018B1, “Inhibitors of RIPK2 and medical uses thereof” (Odyssey Therapeutics, Inc., priority 2022, dated 2026).

SMILES strings stand for the structures.

In the assay the target is T1, RIPK2 enzyme (Homo sapiens, UniProt O43353).
T1 construct: purchased Carna 09-128
T1 sequence (O43353 1-299 limits assumed): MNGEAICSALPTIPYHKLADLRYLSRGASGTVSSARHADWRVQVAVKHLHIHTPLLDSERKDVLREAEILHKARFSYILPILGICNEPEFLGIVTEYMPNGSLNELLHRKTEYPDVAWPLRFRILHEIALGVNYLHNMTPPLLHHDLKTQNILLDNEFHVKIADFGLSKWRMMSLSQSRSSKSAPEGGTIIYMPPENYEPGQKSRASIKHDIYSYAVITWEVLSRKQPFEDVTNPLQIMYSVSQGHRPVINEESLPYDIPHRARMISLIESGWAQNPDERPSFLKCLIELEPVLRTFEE
Kind of assay: RIPK2 inhibition (ADP-Glo Kinase Assay). The assay is classed as biochemical. To be noted: RIPK2 5 nM, ATP 150 μM, MBP substrate, read-out: RIPK2 IC50. Put shortly: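 Swine MBP substrate; compound and 5 nM RIPK2 first mixed for 30 min at room temperature; buffer pH 7.5 HEPES 50 mM with 10 mM MgCl2, 2 mM DTT, 1 mM EGTA, Brij-35, BSA.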
For orientation: In ADP-Glo the light output rises with the ADP produced.
Regarding `Cc1cc(CC(=O)Nc2cnn(C(C)(C)C)c2)ccc1Oc1ccnc2ccc(C(=O)N3CC(F)C3)cc12` [Compound 208, N-(1-(tert-butyl)-1H-pyrazol-4-yl)-2-(4-((6-(3-fluoro-azetidine-1-carbonyl)quinolin-4-yl)oxy)-3-methyl-phenyl) acetamide], the IC50 – broadly, the concentration that gives 50% inhibition – is below 2.5 nM. Regarding `Cc1cc(CC(=O)Nc2cnn(C(C)(C)C)c2)ccc1Oc1ccnc2ccc(C(=O)N3CC(C#N)C3)cc12` [Compound 209, N-(1-(tert-butyl)-1H-pyrazol-4-yl)-2-(4-((6-(3-cyano-azetidine-1-carbonyl)quinolin-4-yl)oxy)-3-methyl-phenyl) acetamide], the IC50 is below 2.5 nM. On to `Cc1cc(CC(=O)Nc2cnn(C(C)(C)C)c2)ccc1Oc1ccnc2ccc(C(=O)N3CCCC3)cc12` [Compound 210, N-(1-(tert-butyl)-1H-pyrazol-4-yl)-2-(3-methyl-4-((6-(pyrrolidine-1-carbonyl)quinolin-4-yl)oxy)phenyl) acetamide], for which the IC50 is below 2.5 nM.

Take `Cc1cc(CC(=O)Nc2cnn(C(C)(C)C)c2)ccc1Oc1ccnc2ccc(OC3CC4(CNC4)C3)cc12` [Compound 211, 2-(4-((6-((2-azaspiro[3.3]heptan-6-yl)oxy)quinolin-4-yl)oxy)-3-methyl-phenyl)-N-(1-(tert-butyl)-1H-pyrazol-4-yl)acetamide]: the IC50 was below 2.5 nM. In the case of `Cc1cc(CC(=O)Nc2cnn(C(C)C)c2)ccc1Oc1ccnc2ccc(S(C)(=O)=O)cc12` [Compound 212, N-(1-isopropyl-1H-pyrazol-4-yl)-2-(3-methyl-4-((6-(methylsulfonyl)quinolin-4-yl)oxy)phenyl)acetamide] it was below 2.5 nM. Take `Cc1cc(CC(=O)Nc2cnn(C3CCC3)c2)ccc1Oc1ccnc2ccc(S(C)(=O)=O)cc12` [Compound 213, N-(1-cyclobutyl-1H-pyrazol-4-yl)-2-(3-methyl-4-((6-(methylsulfonyl)quinolin-4-yl)oxy)phenyl)acetamide]: the IC50 is below 2.5 nM.

Regarding `Cc1cc(CC(=O)Nc2cnn(C3CCCC3)c2)ccc1Oc1ccnc2ccc(S(C)(=O)=O)cc12` [Compound 214, N-(1-cyclopentyl-1H-pyrazol-4-yl)-2-(3-methyl-4-((6-(methylsulfonyl)quinolin-4-yl)oxy)phenyl)acetamide], the IC50 is below 2.5 nM. As to `COc1cc2nccc(Oc3ccc(CC(=O)Nc4cnn(C(C)(C)C)c4)cc3C)c2cc1S(C)(=O)=O` [Compound 216, N-(1-(tert-butyl)-1H-pyrazol-4-yl)-2-(4-((7-methoxy-6-(methylsulfonyl)quinolin-4-yl)oxy)-3-methylphenyl) acetamide], the IC50 was below 2.5 nM. As to `CCOc1cc2nccc(Oc3ccc(CC(=O)Nc4cnn(C(C)(C)C)c4)cc3C)c2cc1S(C)(=O)=O` [Compound 217, N-(1-(tert-butyl)-1H-pyrazol-4-yl)-2-(4-((7-ethoxy-6-(methylsulfonyl)quinolin-4-yl)oxy)-3-methylphenyl) acetamide], the IC50 was below 2.5 nM. In the case of `Cc1cc(CC(=O)Nc2cnn(C(C)(C)C)c2)ccc1Oc1ccnc2cc(OC(F)F)c(S(C)(=O)=O)cc12` [Compound 218, N-(1-(tert-butyl)-1H-pyrazol-4-yl)-2-(4-((7-(difluoromethoxy)-6-(methylsulfonyl)quinolin-4-yl)oxy)-3-methylphenyl) acetamide] it was below 2.5 nM; in that of `Cc1cc(CC(=O)Nc2cnn(C(C)(C)C)c2)ccc1Oc1ccnc2cc(OCC(F)(F)F)c(S(C)(=O)=O)cc12` [Compound 219, N-(1-(tert-butyl)-1H-pyrazol-4-yl)-2-(3-methyl-4-((6-(methylsulfonyl)-7-(2,2,2-trifluoroethoxy)quinolin-4-yl)oxy)phenyl)acetamide], below 2.5 nM; in that of `Cc1cc(CC(=O)Nc2cnn(C(C)(C)C)c2)ccc1Oc1ccnc2ccc(OCCN)cc12` [Compound 222, 2-(4-((6-(2-aminoethoxy)quinolin-4-yl)oxy)-3-methyl-phenyl)-N-(1-(tert-butyl)-1H-pyrazol-4-yl)acetamide], below 2.5 nM.

Turning to `Cc1cc(CC(=O)Nc2cnn(C(C)(C)C)c2)ccc1Oc1ccnc2ccc(OCCO)cc12` [Compound 223, N-(1-(tert-butyl)-1H-pyrazol-4-yl)-2-(4-((6-(2-hydroxy-ethoxy)quinolin-4-yl)oxy)-3-methylphenyl) acetamide], the IC50 is below 2.5 nM. The figure for `Cc1cc(CC(=O)Nc2cnn(C(C)(C)C)c2)ccc1Oc1ccnc2ccc(OCC(C)(C)O)cc12` [Compound 226, N-(1-(tert-butyl)-1H-pyrazol-4-yl)-2-(4-((6-(2-hydroxy-2-methyl-propoxy)quinolin-4-yl)oxy)-3-methylphenyl) acetamide] is below 2.5 nM; for `Cc1cc(CC(=O)Nc2cnn(C(C)(C)C)c2)ccc1Oc1ccnc2ccc(OCC(=O)O)cc12` [Compound 227, 2-((4-(4-(2-((1-(tert-butyl)-1H-pyrazol-4-yl)amino)-2-oxoethyl)-2-methyl-phenoxy)quinolin-6-yl)oxy)acetic acid] it is below 2.5 nM. The figure for `Cc1cc(CC(=O)Nc2cnn(C(C)(C)C)c2)ccc1Oc1ccnc2ccc(OC3CNC3)cc12` [Compound 228, 2-(4-((6-(azetidin-3-yloxy)quinolin-4-yl)oxy)-3-methyl-pheny 1)-N-(1-(tert-butyl)-1H-pyrazol-4-yl)acetamide] is 5.9 nM; for `CC(=O)N1CC(Oc2ccc3nccc(Oc4ccc(CC(=O)Nc5cnn(C(C)(C)C)c5)cc4C)c3c2)C1` [Compound 229, 2-(4-((6-((1-acetylazetidin-3-yl)oxy)quinolin-4-yl)oxy)-3-methyl-phenyl)-N-(1-(tert-butyl)-1H-pyrazol-4-yl)acetamide] it is below 2.5 nM; for `Cc1cc(CC(=O)Nc2cc(C(C)(C)C)n(C)n2)ccc1Oc1ccnc2ccc(S(C)(=O)=O)cc12` [Compound 230, N-(5-(tert-butyl)-1-methyl-1H-pyrazol-3-yl)-2-(3-methyl-4-((6-(methylsulfonyl)quinolin-4-yl)oxy)phenyl)acetamide] it is below 2.5 nM.

As for `[2H]C([2H])([2H])n1nc(NC(=O)Cc2ccc(Oc3ccnc4ccc(S(C)(=O)=O)cc34)c(C)c2)cc1C(C)(C)C` [Compound 231, N-(5-(tert-butyl)-1-(methyl-d3)-1H-pyrazol-3-yl)-2-(3-methyl-4-((6-(methylsulfonyl)quinolin-4-yl)oxy)phenyl)acetamide], the IC50 was below 2.5 nM. The figure for `CCn1nc(NC(=O)Cc2ccc(Oc3ccnc4ccc(S(C)(=O)=O)cc34)c(C)c2)cc1C(C)(C)C` [Compound 232, N-(5-(tert-butyl)-1-ethyl-1H-pyrazol-3-yl)-2-(3-methyl-4-((6-(methylsulfonyl)quinolin-4-yl)oxy)phenyl)acetamide] is below 2.5 nM.

Regarding `Cc1cc(CC(=O)Nc2cc(C(C)C)n(C)n2)ccc1Oc1ccnc2ccc(S(C)(=O)=O)cc12` [Compound 233, N-(5-isopropyl-1-methyl-1H-pyrazol-3-yl)-2-(3-methyl-4-((6-(methylsulfonyl)quinolin-4-yl)oxy)phenyl)acetamide], the IC50 was below 2.5 nM. In the case of `Cc1cc(CC(=O)Nc2cc(C3CC3)[nH]n2)ccc1Oc1ccnc2ccc(S(C)(=O)=O)cc12` [Compound 234, N-(5-cyclopropyl-1H-pyrazol-3-yl)-2-(3-methyl-4-((6-(methylsulfonyl)quinolin-4-yl)oxy)phenyl)acetamide] it was below 2.5 nM.
